Literature values, collected in patent publication US20080064913A1 (priority 2005, published 2008).

Tested on: rat
Conditions: in vivo

**Q.** For `NN` [hydrazine], which “LD50 (rat)” value is on record?
**A.** 60 mg/kg
